Laboratory results reported in patent US20160100579A1, “NEMATICIDAL N-(2-SUBSTITUTED 2-PHENYLETHYL)CARBOXAMIDES AND N-(2-SUBSTITUTED 2-PHENYLETHYL)-THIOCARBOXAMIDES” (priority 2013, published 2016).
Read-outs that look alike come from different tables or passages of the source.

Key:
Haemonchus contortus = Haemonchus contortus - Test (HAEMCO); assay type: in vivo; conditions: after 5 days, 100% = all larvae killed
Method: Haemonchus contortus—Test (HAEMCO)
(§1) Solvent: dimethyl sulfoxide
(§2) To produce a suitable preparation of active compound, 10 mg of active compound are dissolved in 0.5 ml solvent, and the concentrate is diluted with “Ringer's solution” to the desired concentration.
Approximately 40 larvae of the red stomach worm (Haemonchus contortus) are transferred into a test tube containing compound solution.
After 5 days percentage of larval mortality is recorded. 100% efficacy means all larvae are killed, 0% efficacy means no larvae are killed.

[1] = Measurement of log P values by HPLC on reversed phase columns (EEC directive 79/831 Annex V.A8; methods [a] pH 2.3, [b] pH 2.7, [c] pH 7.8); assay type: physicochemical
Cooperia curticei = assay type: in vivo; conditions: after 5 days, 100% = all larvae killed
Method: Cooperia curticei—Test (COOPCU)
as §1, §2
Approximately 40 nematode larvae (Cooperia curticei) are transferred into a test tube containing the compound solution.
After 5 days percentage of larval mortality is recorded. 100% efficacy means all larvae are killed; 0% efficacy means no larvae are killed.

Meloidogyne incognita = Meloidogyne incognita - test (MELGIN); assay type: in vivo; conditions: 20 ppm; salad seedlings in sand; after 14 days; 100% = no galls found
Method: Meloidogyne incognita—test (MELGIN)
Solvent: 125.0 parts by weight of acetone
To produce a suitable preparation of active compound, 1 part by weight of active compound is mixed with the stated amount of solvent, and the concentrate is diluted with water to the desired concentration.
Vessels are filled with sand, a solution of the active ingredient, a suspension containing eggs and larvae of the southern root-knot nematode (Meloidogyne incognita) and salad seeds. The salad seeds germinate and the seedlings grow. Galls develop in the roots.
After 14 days the nematicidal activity is determined on the basis of the percentage of gall formation. 100% means that no galls were found; 0% means the number of galls found on the roots of the treated plants was equal to that in untreated control plants.

Boophilus microplus = Boophilus microplus - Injectiontest (BOOPMI Inj); assay type: in vivo; conditions: 20 μg/animal injected into adult engorged female ticks; after 7 days; 100% = all eggs infertile
Method: Boophilus microplus—Injectiontest (BOOPMI Inj)
as §1
To produce a suitable preparation of active compound, 10 mg of active compound are dissolved in 0.5 ml solvent, and the concentrate is diluted with solvent to the desired concentration.
Five adult engorged female ticks (Boophilus microplus) are injected with 1 μl compound solution into the abdomen. Ticks are transferred into replica plates and incubated in a climate chamber.
After 7 days the egg deposition of fertile eggs is monitored. Eggs where fertility is not visible are stored in a climate chamber till hatching after about 42 days. An efficacy of 100% means all eggs are infertile; 0% means all eggs are fertile.

[2] = method [b]: LC-MS at pH 2.7, 0.1% formic acid in water / acetonitrile
[3] = method [c]: LC-MS at pH 7.8, 0.001 molar ammonium hydrogen carbonate in water / acetonitrile
[4] = method [b]: LC-MS, pH 2.7, 0.1% formic acid in water / acetonitrile

SMILES	activity (efficacy: larval mortality) (Haemonchus contortus; 20 ppm) [%]	log P [1, 2]	log P [1, 3]	activity (efficacy: larval mortality) (Cooperia curticei; 20 ppm) [%]	nematicidal activity (percentage of gall formation) (Meloidogyne incognita) [%]	logP [1, 4]	activity (efficacy: egg deposition of fertile eggs) (Boophilus microplus) [%]	activity (efficacy: larval mortality) (Haemonchus contortus; 100 ppm) [%]	logP ([1]; method [c]: LC-MS, pH 7.8, 0.001 molar ammonium hydrogen carbonate / acetonitrile)	activity (efficacy: larval mortality) (Cooperia curticei; 100 ppm) [%]
CCOC(c1ccc(Cl)cc1Cl)C(C)NC(=O)c1ccccc1[N+](=O)[O-] (stereo not drawn) [Compound 202]	80	3.83^[b]	3.80^[c];	100	90					
COC(c1ccc(Cl)cc1Cl)C(C)NC(=O)c1nccnc1C(F)(F)F (stereo not drawn) [Compound 73]	100			90	100					
COC(CNC(=O)c1nccnc1C(F)(F)F)c1ccc(Cl)cc1Cl (stereo not drawn) [Compound 103]				90	90	3.35^[b]	80			
COC(c1ccc(Cl)cc1)C(C)NC(=O)c1ccccc1C(F)(F)F (stereo not drawn) [Compound 128]	90	3.45^[b]	3.35^[c];	80						
CCOC(c1ccc(Cl)cc1Cl)C(C)NC(=O)c1nccnc1C(F)(F)F (stereo not drawn) [Compound 107]				100	100	4.16^[b]				
COC(c1ccccc1Cl)C(C)NC(=O)c1nccnc1C(F)(F)F (stereo not drawn) [Compound 208]		3.11^[b]	3.10^[c];	80	90					
COC(c1ccc(Cl)cc1)C(C)NC(=O)c1sccc1Br (stereo not drawn) [Compound 65]						3.89^[b]		100	3.83^[c];	80
COC(c1ccc(Cl)cc1)C(C)NC(=O)c1ccoc1I (stereo not drawn) [Compound 64]	100			80		3.28^[b]				
CCC(NC(=O)c1nccnc1C(F)(F)F)C(OC)c1ccc(Cl)cc1Cl (stereo not drawn) [Compound 92]				90	90	3.99^[b]				
